Results published in the NIST ThermoML archive (doi:10.1021/je900093h).
± gives the expanded uncertainty stated by the source.

Columns and labels:
[1] = molar heat capacity at constant pressure; conditions: 101.33 kPa, Vacuum adiabatic calorimetry
[2] = Molar enthalpy of transition or fusion; conditions: Crystal
[3] = molar enthalpy of vaporization or sublimation; conditions: 304.79 K; Liquid; Static calorimetry

CCCCCCCCCC(=O)OCC [ethyl decanoate]
molar heat capacity at constant pressure ([1]; 5 K, Crystal): 0.498 ± 0.019 J/K/mol
molar heat capacity at constant pressure ([1]; 10 K, Crystal): 4.477 ± 0.053 J/K/mol
molar heat capacity at constant pressure ([1]; 15 K, Crystal): 11.92 ± 0.12 J/K/mol
molar heat capacity at constant pressure ([1]; 20 K, Crystal): 21.04 ± 0.19 J/K/mol
molar heat capacity at constant pressure ([1]; 25 K, Crystal): 30.97 ± 0.27 J/K/mol
molar heat capacity at constant pressure ([1]; 30 K, Crystal): 41.18 ± 0.34 J/K/mol
molar heat capacity at constant pressure ([1]; 35 K, Crystal): 51.36 ± 0.43 J/K/mol
molar heat capacity at constant pressure ([1]; 40 K, Crystal): 61.27 ± 0.51 J/K/mol
molar heat capacity at constant pressure ([1]; 45 K, Crystal): 71.2 ± 0.59 J/K/mol
molar heat capacity at constant pressure ([1]; 50 K, Crystal): 80.91 ± 0.66 J/K/mol
molar heat capacity at constant pressure ([1]; 60 K, Crystal): 98.99 ± 0.81 J/K/mol
molar heat capacity at constant pressure ([1]; 70 K, Crystal): 115.2 ± 0.9 J/K/mol
molar heat capacity at constant pressure ([1]; 80 K, Crystal): 130.2 ± 1.1 J/K/mol
molar heat capacity at constant pressure ([1]; 90 K, Crystal): 144.3 ± 1.2 J/K/mol
molar heat capacity at constant pressure ([1]; 100 K, Crystal): 157.4 ± 1.3 J/K/mol
molar heat capacity at constant pressure ([1]; 110 K, Crystal): 169.3 ± 1.4 J/K/mol
molar heat capacity at constant pressure ([1]; 120 K, Crystal): 180 ± 1.5 J/K/mol
molar heat capacity at constant pressure ([1]; 130 K, Crystal): 189.6 ± 1.5 J/K/mol
molar heat capacity at constant pressure ([1]; 140 K, Crystal): 198.3 ± 1.6 J/K/mol
molar heat capacity at constant pressure ([1]; 150 K, Crystal): 206.8 ± 1.7 J/K/mol
molar heat capacity at constant pressure ([1]; 160 K, Crystal): 214.7 ± 1.7 J/K/mol
molar heat capacity at constant pressure ([1]; 170 K, Crystal): 222.5 ± 1.8 J/K/mol
molar heat capacity at constant pressure ([1]; 180 K, Crystal): 230.5 ± 1.9 J/K/mol
molar heat capacity at constant pressure ([1]; 190 K, Crystal): 238.8 ± 1.9 J/K/mol
molar heat capacity at constant pressure ([1]; 200 K, Crystal): 247.4 ± 2 J/K/mol
molar heat capacity at constant pressure ([1]; 210 K, Crystal): 256.7 ± 2.1 J/K/mol
molar heat capacity at constant pressure ([1]; 220 K, Crystal): 266.7 ± 2.2 J/K/mol
molar heat capacity at constant pressure ([1]; 230 K, Crystal): 277.5 ± 2.2 J/K/mol
molar heat capacity at constant pressure ([1]; 240 K, Crystal): 288.9 ± 2.3 J/K/mol
molar heat capacity at constant pressure ([1]; 250 K, Crystal): 301.2 ± 2.4 J/K/mol
molar heat capacity at constant pressure ([1]; 253.6 K, Crystal): 305.7 ± 2.5 J/K/mol
molar heat capacity at constant pressure ([1]; 253.6 K, Liquid): 386.5 ± 3.1 J/K/mol
molar heat capacity at constant pressure ([1]; 260 K, Liquid): 388.1 ± 3.1 J/K/mol
molar heat capacity at constant pressure ([1]; 270 K, Liquid): 391.3 ± 3.2 J/K/mol
molar heat capacity at constant pressure ([1]; 280 K, Liquid): 395.2 ± 3.2 J/K/mol
molar heat capacity at constant pressure ([1]; 290 K, Liquid): 399.6 ± 3.2 J/K/mol
molar heat capacity at constant pressure ([1]; 298.15 K, Liquid): 403.5 ± 3.3 J/K/mol
molar heat capacity at constant pressure ([1]; 300 K, Liquid): 404.4 ± 3.3 J/K/mol
molar heat capacity at constant pressure ([1]; 310 K, Liquid): 409.6 ± 3.3 J/K/mol
molar heat capacity at constant pressure ([1]; 320 K, Liquid): 415 ± 3.3 J/K/mol
molar heat capacity at constant pressure ([1]; 330 K, Liquid): 420.6 ± 3.4 J/K/mol
molar heat capacity at constant pressure ([1]; 340 K, Liquid): 426.4 ± 3.4 J/K/mol
molar heat capacity at constant pressure ([1]; 350 K, Liquid): 432.3 ± 3.5 J/K/mol
molar heat capacity at constant pressure ([1]; 360 K, Liquid): 438.3 ± 3.5 J/K/mol
molar heat capacity at constant pressure ([1]; 370 K, Liquid): 444.5 ± 3.6 J/K/mol
Molar enthalpy of transition or fusion [2]: 7.717 ± 0.0526 kcal/mol
molar enthalpy [3]: 16.7 ± 0.335 kcal/mol
